Entries after “also recorded” stand apart in the source; their conditions may differ.
Legend:
CHK2 = assay: Western blot of phosphorylated CHK2 (Thr68) in activated Jurkat cells; assay type: cell-based, human; settings: Jurkat activated with PMA+PHA
Method: (§1) Cell lysis and nuclear extract: Cells were washed with cold PBS twice and centrifuged at 5000 rpm for 5 minutes. For the nuclear extract, pellets were suspended with 800 μL of 10 mN HEPES lysis buffer (10 mM HEPES at pH 7.9, 10 mM KCl, 1 mM DTT, and 1× protease and phosphatase inhibitor) and incubated on ice for 15 minutes. 50 μL of NP-40 (10% in water) was added and the pellets were mixed for 10 seconds. Lysates were centrifuged for 5 minutes at 4° C. at 13,000 rpm. The supernatant solution which is containing the cytosolic fraction was discarded and the pellets were resuspended in 20 mM HEPES lysis buffer (20 mM HEPES at pH 7.9, 0.4 M NaCl, 1 mM DTT, and 1× protease, and phosphatase inhibitor) and incubated on ice for 15 minutes with intermittent mixing. Lysates were centrifuged for 10 minutes at 4° C. at 13,000 rpm. The supernatant containing nuclear extract was stored at -20° C. until they were used for the Western blot analysis. For total cell lysates, cell pellets were resuspended with 100 μL of RIPA buffer (150 mM NaCl, 1% Triton X-100, 0.1% SDS, and 50 mM Tris at pH 8.0) and incubated on ice for 10 minutes. The lysates were centrifuged for 10 minutes at 4° C. at 13,000 rpm and the supernatant solutions were stored at -20° C. until they were used for the Western blot analysis. Western blot analysis: Nuclear extract lysates were separated on 3-8% Tris-Acetate gels (Invitrogen). […]

DNA-PKcs = DNA-PKcs (Homo sapiens, UniProt P78527); settings: reference [24]; cited from earlier work
Jurkat cells = assay: Cell viability assay (CELLTITER 96 AQUEOUS One) in Jurkat cells; assay type: cell-based, human; settings: NU7441 at varying concentrations, 48 hours
Method: Cell Culture: Human peripheral blood mononuclear cells (PBMC,) and Jurkat cells were purchased from ATCC (PCS-800-011, Manassas, VA). Cells were maintained at 37° C. in a humidified atmosphere composed of 5% CO2. Jurkat cells were cultured in RPMI 1640 medium which was supplemented with 10% FCS and human PBMC was cultured in RPMI 1640 medium which was supplemented with 10% FCS and pen/strep. Both Jurkat cells and PBMC were stimulated with PHA (50 ng/mL) and PMA (1 μg/mL) for 24 hours prior to harvesting for IL-2 detection or 6 hours prior for western blot analysis. The NU7441 DNA-PKcs inhibitor was added at varying concentrations at the time of stimulation. Cell viability assay: Cell viability assay was performed using Promega CELLTITER 96 AQUEOUS One Solution Cell Proliferation Assay (Madison, WI) and following the manufacturer's protocol. Briefly, 100 μL of PBMC or Jurkat cells were plated in a 96-well plate and treated with various concentration of NU7441 for 48 hours. CELLTITER solution (20 μL/100 μL of cell suspension) was added to the cells and the plate was incubated for 3 hours at 37° C. and the absorbance at 490 nm was recorded using SynergyHTX (BioTek, Winooski, VT) plate reader.

Cabin1 = assay: Western blot of Cabin1 expression in activated Jurkat cells; assay type: cell-based, human; settings: Jurkat activated with PMA+PHA
Method: as §1

IL-2 = assay: Secreted IL-2 ELISA, PBMCs stimulated with PHA+PMA; assay type: cell-based, human; settings: PBMC, activation with PMA+PHA
Method: Cell Culture: Human peripheral blood mononuclear cells (PBMC,) and Jurkat cells were purchased from ATCC (PCS-800-011, Manassas, VA). Cells were maintained at 37° C. in a humidified atmosphere composed of 5% CO2. Jurkat cells were cultured in RPMI 1640 medium which was supplemented with 10% FCS and human PBMC was cultured in RPMI 1640 medium which was supplemented with 10% FCS and pen/strep. Both Jurkat cells and PBMC were stimulated with PHA (50 ng/mL) and PMA (1 μg/mL) for 24 hours prior to harvesting for IL-2 detection or 6 hours prior for western blot analysis. The NU7441 DNA-PKcs inhibitor was added at varying concentrations at the time of stimulation. Detection of secreted IL-2: Secreted IL-2 was detected by Human IL-2 ELISA Kit from Thermo Scientific (Waltham, MA). The manufacturer's protocol was followed. Prior to harvesting, cells were treated with PHA (50 ng/ml) and PMA (1 μg/mL) for 24 hours with or without the NU7441 inhibitor. Jurkat cells stimulated with the anti-CD28/CD3 dynabeads were done so according to the manufacturer's protocol at a 1:1 ratio for 24 hours prior to harvesting. After stimulation, supernatant samples of Jurkat cells or PBMCs (2 million cells/mL) were collected and diluted 10 times before the assay. […] Stop solution was added and the absorbance of each well was read at 450 nm using the plate reader.

O=c1cc(N2CCOCC2)oc2c(-c3cccc4c3sc3ccccc34)cccc12 [NU7441]
CHK2 phosphorylation at Thr68 (CHK2): reduced CHK2 phosphorylation | CHK2 phosphorylation at Thr68 (CHK2; listed as NU744): reduced | inhibition of DNA-PKcs (DNA-PKcs): potent and specific inhibitor | interference with ATR or ATM activation (DNA-PKcs): does not interfere | viability of Jurkat cells (Jurkat cells): did not alter the viability; also recorded: no significant reduction in viability | Cabin1 expression (Cabin1): elevated Cabin1 expression | Cabin1 expression (Cabin1; listed as NU744): increase in Cabin1 expression | level of IL-2 produced (IL-2): significantly reduce IL-2 production

Source: patent US20240245696A1, “INHIBITORS OF DNA PK AND USES THEREOF” (BioVentures, LLC, priority 2017, published 2024)
